Laboratory results reported in the supplement of paper PMC11451515.

What was measured:
Settings in all cases: 48 h
NOMO1 [1] = assay: AUC of viability dose-response curve (% viability x log10 dose units); higher = less sensitive
How it was run: (§1)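 Viability of medium-adapted leukemia cells was measured by CellTiter-Glo One luminescence after 48 h at 37°C with library compounds in DMSO. Doses were 11 threefold steps from 47 μM to 0.79 nM, in 1536-well plates at 500 or 1000 cells/well. Signals were normalised per plate to DMSO and cell-free wells and fitted with a four-parameter log-logistic model on log10 dose. Area under the curve was integrated by trapezoidal rule, with curves exceeding full viability scaled and failed quality-control curves removed.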

P12-Ichikawa [2] = assay: as above
How it was run: as §1

SEM cells [3] = assay: as above
How it was run: as §1

NOMO1 [4] = assay: cell viability relative to DMSO control; higher = less cytotoxic
How it was run: (§2)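 Library compounds in DMSO were pin-dosed in an 11-point threefold series (47 μM to 0.79 nM) onto leukemia cells in 1536-well plates (5 μl). Plates held 500 cells/well of NOMO1 or SEM or 1000 cells/well of P12-Ichikawa, each adapted for at least four passages in each medium. Luminescence was read with CellTiter-Glo One after 48 h at 37°C. Viability means the per-plate percentage relative to DMSO wells, using cell-free wells as background.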

P12-Ichikawa [5] = assay: as above
How it was run: as §2

SEM cells [6] = assay: as above
How it was run: as §2

CC(C)(F)C[C@H](N[C@@H](c1ccc(-c2ccc([S+](C)(=O)[O-])cc2)cc1)C(F)(F)F)C(=O)NC1(C#N)CC1
AUC of viability dose-response curve
Settings | NOMO1 [1] | P12-Ichikawa [2] | SEM cells [3]
HPLM + 10% dialyzed FBS | 467 | 471 | 454
RPMI 5 mM glucose + 10% FBS | 427 | 471 | 452
RPMI 5 mM glucose + 10% dialyzed FBS | 446 | 474 | 475

cell viability [%]
Settings | NOMO1 [4] | P12-Ichikawa [5] | SEM cells [6]
HPLM + 10% dialyzed FBS, 0.000781 µM | 91.5 | 106 | 88.3
HPLM + 10% dialyzed FBS, 0.00234 µM | 113 | 120 | 93.8
HPLM + 10% dialyzed FBS, 0.00702 µM | 111 | 111 | 93.1
HPLM + 10% dialyzed FBS, 0.0211 µM | 113 | 112 | 96.1
HPLM + 10% dialyzed FBS, 0.0632 µM | 108 | 115 | 95.9
HPLM + 10% dialyzed FBS, 0.19 µM | 103 | 117 | 91
HPLM + 10% dialyzed FBS, 0.569 µM | 107 | 124 | 96.3
HPLM + 10% dialyzed FBS, 1.71 µM | 116 | 115 | 97.5
HPLM + 10% dialyzed FBS, 5.12 µM | 111 | 112 | 104
HPLM + 10% dialyzed FBS, 15.4 µM | 94.6 | 110 | 95.9
HPLM + 10% dialyzed FBS, 46.1 µM | 89.8 | 98.7 | 91.6
RPMI 5 mM glucose + 10% FBS, 0.000781 µM | 124 | 99.9 | 90.4
RPMI 5 mM glucose + 10% FBS, 0.00234 µM | 136 | 114 | 116
RPMI 5 mM glucose + 10% FBS, 0.00702 µM | 125 | 111 | 112
RPMI 5 mM glucose + 10% FBS, 0.0211 µM | 124 | 121 | 117
RPMI 5 mM glucose + 10% FBS, 0.0632 µM | 119 | 120 | 114
RPMI 5 mM glucose + 10% FBS, 0.19 µM | 116 | 111 | 105
RPMI 5 mM glucose + 10% FBS, 0.569 µM | 109 | 112 | 93.1
RPMI 5 mM glucose + 10% FBS, 1.71 µM | 115 | 109 | 109
RPMI 5 mM glucose + 10% FBS, 5.12 µM | 106 | 113 | 96.5
RPMI 5 mM glucose + 10% FBS, 15.4 µM | 97.5 | 106 | 90.3
RPMI 5 mM glucose + 10% FBS, 46.1 µM | 102 | 98.7 | 85.8
RPMI 5 mM glucose + 10% dialyzed FBS, 0.000781 µM | 105 | 93.8 | 105
RPMI 5 mM glucose + 10% dialyzed FBS, 0.00234 µM | 125 | 115 | 117
RPMI 5 mM glucose + 10% dialyzed FBS, 0.00702 µM | 117 | 106 | 124
RPMI 5 mM glucose + 10% dialyzed FBS, 0.0211 µM | 121 | 106 | 107
RPMI 5 mM glucose + 10% dialyzed FBS, 0.0632 µM | 103 | 121 | 119
RPMI 5 mM glucose + 10% dialyzed FBS, 0.19 µM | 108 | 111 | 126
RPMI 5 mM glucose + 10% dialyzed FBS, 0.569 µM | 112 | 111 | 108
RPMI 5 mM glucose + 10% dialyzed FBS, 1.71 µM | 109 | 111 | 114
RPMI 5 mM glucose + 10% dialyzed FBS, 5.12 µM | 101 | 109 | 115
RPMI 5 mM glucose + 10% dialyzed FBS, 15.4 µM | 101 | 101 | 123
RPMI 5 mM glucose + 10% dialyzed FBS, 46.1 µM | 92.3 | 99.5 | 103

O=C(CCCCCCC(=O)Nc1ccc([C@H]2O[C@@H](CSc3nc(-c4ccccc4)c(-c4ccccc4)o3)C[C@@H](c3ccc(CO)cc3)O2)cc1)NO
AUC of viability dose-response curve
Settings | NOMO1 [1] | P12-Ichikawa [2] | SEM cells [3]
HPLM + 10% dialyzed FBS | 405 | 378 | 398
RPMI 5 mM glucose + 10% FBS | 406 | 376 | 397
RPMI 5 mM glucose + 10% dialyzed FBS | 403 | 362 | 391

cell viability [%]
Settings | NOMO1 [4] | P12-Ichikawa [5] | SEM cells [6]
RPMI 5 mM glucose + 10% FBS, 0.000781 µM | 120 | 118 | 109
RPMI 5 mM glucose + 10% FBS, 0.00234 µM | 135 | 122 | 124
RPMI 5 mM glucose + 10% FBS, 0.00702 µM | 117 | 134 | 128
RPMI 5 mM glucose + 10% FBS, 0.0211 µM | 124 | 123 | 134
RPMI 5 mM glucose + 10% FBS, 0.0632 µM | 117 | 136 | 121
RPMI 5 mM glucose + 10% FBS, 0.19 µM | 131 | 116 | 112
RPMI 5 mM glucose + 10% FBS, 0.569 µM | 127 | 115 | 115
RPMI 5 mM glucose + 10% FBS, 1.71 µM | 111 | 114 | 114
RPMI 5 mM glucose + 10% FBS, 5.12 µM | 108 | 49.9 | 87.4
RPMI 5 mM glucose + 10% FBS, 15.4 µM | 12.5 | 4.95 | 8.6
RPMI 5 mM glucose + 10% FBS, 46.1 µM | 5.57 | 3.26 | 7.11
RPMI 5 mM glucose + 10% dialyzed FBS, 0.000781 µM | – | – | 113
RPMI 5 mM glucose + 10% dialyzed FBS, 0.00234 µM | – | – | 117
RPMI 5 mM glucose + 10% dialyzed FBS, 0.00702 µM | – | – | 135
RPMI 5 mM glucose + 10% dialyzed FBS, 0.0211 µM | – | – | 135
RPMI 5 mM glucose + 10% dialyzed FBS, 0.0632 µM | – | – | 124
RPMI 5 mM glucose + 10% dialyzed FBS, 0.19 µM | – | – | 133
RPMI 5 mM glucose + 10% dialyzed FBS, 0.569 µM | – | – | 130
RPMI 5 mM glucose + 10% dialyzed FBS, 1.71 µM | – | – | 116
RPMI 5 mM glucose + 10% dialyzed FBS, 5.12 µM | – | – | 77.6
RPMI 5 mM glucose + 10% dialyzed FBS, 15.4 µM | – | – | 9.58
RPMI 5 mM glucose + 10% dialyzed FBS, 46.1 µM | – | – | 7.49
